Experimental data reported in PMC9426601 (mBio, 2022).
Read-outs that look alike come from different tables or passages of the source.

Experiments:
[1] = target: NA activity of A(H3N2)-PA/I38T (Influenza A virus, UniProt P06818); format: biochemical
[2] = target: NA activity of A(H1N1pdm09)-PA/E23K (Influenza A virus, UniProt C7FH46); format: biochemical; details: read-out: IC50 (nM), neuraminidase inhibitor
[3] = tested on: A(H3N2) 80% WT: 20% PA/I38T; set-up: species or system ferrets (Mustela putorius furo); AUC (area under the curve of nasal wash viral titer): unit not given beside the values; details: in vivo
A(H3N2) 100% PA/I38T = tested on: A(H3N2) 100% PA/I38T; set-up: species or system ferrets (Mustela putorius furo); AUC (area under the curve of nasal wash viral titer): unit not given beside the values; details: in vivo
A(H1N1pdm09)-PA/E23K [4] = format: cell-based, influenza A(H1N1pdm09) virus
[5] = tested on: A(H1N1pdm09) 80% WT: 20% PA/E23K; set-up: species or system ferrets (Mustela putorius furo); AUC (area under the curve of nasal wash viral titer): unit not given beside the values; details: in vivo
A(H3N2)-PA/I38T [6] = format: cell-based, influenza A(H3N2) virus
[7] = tested on: A(H1N1pdm09) 100% PA/E23K; set-up: species or system ferrets (Mustela putorius furo); AUC (area under the curve of nasal wash viral titer): unit not given beside the values; details: in vivo
A(H1N1pdm09)-PA/E23K [8] = format: cell-based, influenza A(H1N1pdm09) virus; remark: listed apart in the source
A(H3N2)-PA/I38T [9] = format: cell-based, influenza A(H3N2) virus; remark: listed apart in the source
[10] = read-out: Baloxavir EC50 (nM) FRA
[11] = read-out: Baloxavir EC50 (nM) YRA
[12] = read-out: Oseltamivir IC50 (nM) YRA

CCC(CC)[C@H](NC(C)=O)[C@@H]1[C@H](O)[C@@H](C(=O)O)C[C@H]1N=C(N)N [Peramivir]
IC50 ([1]; read-out: IC50 (nM), neuraminidase inhibitor): 0.12 ± 0.1 nM
IC50 [2]: 0.17 ± 0.01 nM

O=C1c2c(O)c(=O)ccn2N([C@@H]2c3ccccc3SCc3c2ccc(F)c3F)[C@@H]2COCCN12 [Baloxavir, baloxavir acid]
AUC (area under the curve of nasal wash viral titer) [3]: 18.6 ± 1.4
Duration of viral shedding [3]: 4.7 ± 0.5 days
AUC (area under the curve of nasal wash viral titer) (A(H3N2) 100% PA/I38T): 23.4 ± 1.4
Duration of viral shedding (A(H3N2) 100% PA/I38T): 5.7 ± 0.5 days
reduction in AUC relative to placebo (A(H3N2) 100% PA/I38T): 10%
reduction in viral shedding relative to placebo (A(H3N2) 100% PA/I38T): 0.6 days
fold higher EC50 compared to the corresponding pretreatment virus, FRA (A(H1N1pdm09)-PA/E23K [4]): 17 fold
EC50 (A(H1N1pdm09)-PA/E23K [4]; [10]): 20.8 ± 10.2 nM
AUC (area under the curve of nasal wash viral titer) [5]: 24.7 ± 2.4
Duration of viral shedding [5]: 5.3 ± 0.5 days
reduction in AUC relative to placebo [5]: 6%
fold higher EC50 compared to the corresponding pretreatment virus, FRA (A(H3N2)-PA/I38T [6]): 77 fold
EC50 (A(H3N2)-PA/I38T [6]; [10]): 46 ± 6.9 nM
AUC (area under the curve of nasal wash viral titer) [7]: 28.6 ± 0.8
Duration of viral shedding [7]: 6.3 ± 0.5 days
rapid reduction in viral load in the first 24 h following treatment [7]: not observed
reduction in AUC relative to placebo [7]: no significant difference
fold increase in EC50 compared to the corresponding WT, YRA (A(H1N1pdm09)-PA/E23K [8]): 9 fold
EC50 (A(H1N1pdm09)-PA/E23K [8]; [11]): 2.6 ± 0.07 nM
fold increase in EC50 compared to the corresponding WT, YRA (A(H3N2)-PA/I38T [9]): 100 fold
EC50 (A(H3N2)-PA/I38T [9]; [11]): 40.1 ± 15.6 nM

CCOC(=O)C1=C[C@@H](OC(CC)CC)[C@H](NC(C)=O)[C@@H](N)C1 [Oseltamivir, oseltamivir]
AUC (area under the curve of nasal wash viral titer) [3]: 19.3 ± 1.8
IC50 ([1]; read-out: Oseltamivir IC50 (nM) NIA): 0.15 ± 0.11 nM
AUC (area under the curve of nasal wash viral titer) [5]: 26.9 ± 1.7
AUC greater than placebo [5]: 7%
AUC (area under the curve of nasal wash viral titer) [7]: 26.2 ± 1.3
